Laboratory results reported in ChEMBL document CHEMBL3217542, “Chiral diaminocyclohexane coupling polyphenols: A new class of anticancer agents” (Medchemcomm, 2012).
The source made the active and inactive calls. The rule behind the calls is not given here.

Legend:
MDA-MB-231 = experiment: Cytotoxicity against human MDA-MB-231 cells after 2 days by SRB assay; assay type: functional, cell-based; conditions: MDA-MB-231, 48 h
[1] = Cytotoxicity against human HBT-174 cells after 2 days by SRB assay; assay type: functional, cell-based; conditions: HBT-174, 48 h
MDA-MB-453 [2] = experiment: Cytotoxicity against human MDA-MB-453 cells after 2 days by SRB assay; assay type: functional, cell-based; conditions: MDA-MB-453, 48 h
[3] = Cytotoxicity against human fibroblasts after 2 days by SRB assay; assay type: cell-based; conditions: Fibroblast, 48 h
MCF7 [4] = experiment: Cytotoxicity against human MCF7 cells after 2 days by SRB assay; assay type: functional, cell-based; conditions: MCF7, 48 h
MCF7 [5] = experiment: Selectivity index, ratio of IC50 for human fibroblasts to IC50 for human MCF7 cells
NCI-H460 = experiment: Cytotoxicity against human NCI-H460 cells after 2 days by SRB assay; assay type: functional, cell-based; conditions: NCI-H460, 48 h
[6] = Selectivity index, ratio of IC50 for human fibroblasts to IC50 for human HBT-174 cells
MDA-MB-468 = experiment: Cytotoxicity against human MDA-MB-468 cells after 2 days by SRB assay; assay type: functional, cell-based; conditions: MDA-MB-468, 48 h
MDA-MB-453 [7] = experiment: Antimammosphere formation activity in human MDA-MB-453 cells assessed as ALDH positive cells at 1 uM after 4 days relative to control; assay type: functional
HBT-174 = experiment: Inhibition of colony formation in human HBT-174 cells assessed as decrease in colony size and number of colony at 0.5 to 5 uM treated every 3 days for 10 days by SRB staining; assay type: functional, cell-based
MCF7 [8] = experiment: Reduction of Bcl-2 gene expression in human MCF7 cells at 5 uM after 24 hrs by RT-PCR analysis relative to control; assay type: functional; set-up: scale not given: the % may be the effect or the level left
MCF7 [9] = experiment: Reduction of cyclin-D1 gene expression in human MCF7 cells at 5 uM after 24 hrs by RT-PCR analysis relative to control; assay type: functional; set-up: scale not given: the % may be the effect or the level left
MDA-MB-453 [10] = experiment: Antimammosphere formation activity in human MDA-MB-453 cells assessed as ALDH positive cells at 10 uM after 4 days relative to control; assay type: functional
MCF7 [11] = experiment: Reduction of p53 gene expression in human MCF7 cells at 5 uM after 24 hrs by RT-PCR analysis relative to control; assay type: functional; set-up: scale not given: the % may be the effect or the level left
MDA-MB-453 [12] = experiment: Antimammosphere formation activity in human MDA-MB-453 cells assessed as ALDH positive cells at 5 uM after 4 days relative to control; assay type: functional
MCF7 [13] = experiment: Reduction of Bcl-xL gene expression in human MCF7 cells at 5 uM after 24 hrs by RT-PCR analysis relative to control; assay type: functional; set-up: scale not given: the % may be the effect or the level left

Structure (SMILES)	IC50 (MDA-MB-231) [µM]	IC50 [1] [µM]	IC50 (MDA-MB-453 [2]) [µM]	IC50 [3] [µM]	IC50 (MCF7 [4]) [µM]	Ratio IC50 (MCF7 [5])	IC50 (NCI-H460) [µM]	Ratio IC50 [6]	IC50 (MDA-MB-468) [µM]	Activity (MDA-MB-453 [7]) [%]	inhibition (HBT-174)	Activity (MCF7 [8]) [%]	Activity (MCF7 [9]) [%]	Activity (MDA-MB-453 [10]) [%]	Activity (MCF7 [11]) [%]	Activity (MDA-MB-453 [12]) [%]	Activity (MCF7 [13]) [%]
Oc1ccc(CN[C@@H]2CCCC[C@H]2NCc2ccc(O)c(O)c2)cc1O	1.4	3.3	1.8	32	2.5	12.8	0.9	9.7	1.2								
Oc1cccc(CN[C@@H]2CCCC[C@H]2NCc2cccc(O)c2O)c1O	2.4	6.8	4.6	106	4.8	22.1	1.8	15.6	3.3	90	Active	15.6	24.8	<5	33.1	25	22.2
Oc1ccc(CN[C@@H]2CCCC[C@H]2NCc2ccc(O)cc2O)c(O)c1	4	8.2	4.5	82	6	13.7	2.2	10	4.4								
O=C(O)c1ccc(O)c(CN[C@@H]2CCCC[C@H]2NCc2cc(C(=O)O)ccc2O)c1				108	8.4	12.8											
Cc1ccc(O)c(CN[C@@H]2CCCC[C@H]2NCc2cc(C)ccc2O)c1				37	3.6	10.3											
Oc1ccc(O)c(CN[C@@H]2CCCC[C@H]2NCc2cc(O)ccc2O)c1	3.8	8	5.2	75	5.2	14.4	2.4	9.4	5.9								
